Reference: US20250197453A1, “COMPOSITION COMPRISING TAT PEPTIDE VARIANT AS ACTIVE INGREDIENT FOR PREVENTING OR TREATING METABOLIC DISEASES” (priority 2021, published 2025)

Tested on: 3T3-L1 cells
Assay: PEGn-TAT variants: inhibition of differentiation of 3T3-L1 cells and of fatty acid synthesis
Type: cell-based
Method: 3T3-L1 cells were cultured in DMEM (high glucose, pyruvate, GIBCO CAT #11995) supplemented with 10% calf serum and 1% penicillin-streptomycin (P/S). Cells were seeded in a 6-well culture plate, and when the cells reached a confluency of 60 to 70%, MDI, a differentiation initiation medium, was added at a 1× concentration. At this time, the cells were treated with each of TAT-38, X-FAT8, and PEGn-TAT at a concentration of 1 to 10 μM. After 2 days, MDI was replaced with insulin, and each of AT-38, X-FAT8, and PEGn-TAT was added to fresh medium every day during culture. From day 4, culture was continued for 4 days in maintenance medium. Thereafter, the cell status was checked and recorded every day. When necessary, the cells were fixed and the amount of fatty acids was analyzed by Oil-O red staining.

## TACTNCYCAKCCFHCQVC-(Peg)7-RAKRRQRRR [PEG7-TAT]
4 days (FIG. 12A) and 6 days (FIG. 12B) after the initiation of differentiation
  differentiation inhibitory ability and intracellular lipid accumulation, 3T3-L1 cells: very high
4 days after the initiation of differentiation, FIG. 11A
  differentiation inhibitory ability and intracellular lipid accumulation, 3T3-L1 cells: very high
6 days after the induction of differentiation, FIG. 11B
  differentiation inhibitory ability, 3T3-L1 cells: still significant
8 days after the initiation of differentiation, FIG. 13
  differentiation and intracellular lipid accumulation, 3T3-L1 cells, Oil-O-Red staining: strong inhibition of differentiation and inhibition of intracellular lipid accumulation
